Test results from patent US9296741B2, “Bromodomain inhibitors” (priority 2012, dated 2016).
Like-named read-outs stand apart in the source and are kept apart here. Marks after values point to notes of the source that are not given here.

How the values were obtained:
[1] = Mouse liver microsome stability assay; type: in vitro ADME; conditions: male, CD1, mouse, microsomes, pH 7.4
[2] = tested on: HT1080 human cancer cell xenograft; assay: Xenograft efficacy study, HT1080; type: in vivo, mouse; conditions: PO, QDx14, vehicle H
[3] = tested on: rat collagen induced arthritis (rCIA) paw swelling
[4] = Rat liver microsome stability assay; type: in vitro ADME; conditions: rat liver microsomes (male Sprague-Dawley), 0.5 μM test compound, 0.25 mg/mL microsomal protein, pH 7.4, 37° C.; read-out: Stability in rat liver microsomes (t1/2 in minutes)
[5] = tested on: SKM1 human cancer cell xenograft; assay: Xenograft efficacy study, SKM1; type: in vivo, mouse; conditions: PO, QDx21, vehicle A
[6] = Human liver microsome stability assay; type: in vitro ADME; conditions: both sexes, human, microsomes, pH 7.4
[7] = tested on: MX-1 human breast cancer xenograft tumors; assay: Xenograft tumor growth inhibition assay, MX-1; type: in vivo, mouse
[8] = tested on: MV4-11 human cancer cell xenograft; assay: Xenograft efficacy study, MV4-11; type: in vivo, mouse; conditions: PO, QDx21, vehicle D
[9] = tested on: rat collagen induced arthritis (rCIA) paw swelling; assay: animal or person; conditions: po, read-out: ED50, inhibition of inflammation in the arthritic paw
[10] = tested on: breast cancer cell line MX-1; assay: MX-1 cell line proliferation assay; type: cell-based, human; conditions: Homo sapiens, MX1, 72 h; MX-1 cells, 3-day proliferation, Cell Titer Glo; read-out: Cellular proliferation: EC50
[11] = molecular target: human BRD4 first bromodomain (BDI_K57-E168) (Homo sapiens (Human), UniProt O60885); assay: TR-FRET bromodomain binding assay, BRD4 first bromodomain
[12] = tested on: LPS induced IL-6 production; assay: LPS (lipopolysaccharide) induced IL-6 production mouse assay; type: in vivo; conditions: Mus musculus, read-out: Inhibition of LPS induced IL-6 production in Mice, % inhibition at 3 mg/kg; 3 mg/kg oral, 1 h before LPS; serum IL-6 2 h after LPS
[13] = tested on: OPM-2 human multiple myeloma xenograft tumors; assay: animal or person; conditions: Mus musculus; for change in vivo at 0.5 mg/kg / inhibition in vivo at 0.5 mg/kg: 0.5 mg/kg/day; for change in vivo at 1 mg/kg / inhibition in vivo at 1 mg/kg: 1 mg/kg/day
[14] = MX-1, 0.3 mg/kg/day, PO, QD, vehicle F
[15] = MX-1, 1 mg/kg/day, PO, QD, vehicle F
[16] = MX-1, 3 mg/kg/day, PO, QD, vehicle F
[17] = OPM-2, po, read-out: % TGI (tumor growth inhibition), OPM-2, PO, QDx21, vehicle A

Which results are given for CCS(=O)(=O)Nc1ccc(Oc2ccc(F)cc2F)c(-c2cn(C)c(=O)c3[nH]ccc23)c1 [Example 36, N-[4-(2,4-difluorophenoxy)-3-(6-methyl-7-oxo-6,7-dihydro-1H-pyrrolo[2,3-c]pyridin-4-yl)phenyl]ethanesulfonamide]?
half-life at 0.5 μM [1]: 0.683 h; % TGD (tumor growth delay) ([2]; 0.3 mg/kg/day): −1%; % TGI (tumor growth inhibition) ([2]; 0.3 mg/kg/day): 26%; % removed from study ([2]; 0.3 mg/kg/day): 30%; % TGD (tumor growth delay) ([2]; 1 mg/kg/day): 3%; % TGI (tumor growth inhibition) ([2]; 1 mg/kg/day): 41* %; % removed from study ([2]; 1 mg/kg/day): 10%; % TGD (tumor growth delay) ([2]; 3 mg/kg/day): 46*** %; % TGI (tumor growth inhibition) ([2]; 3 mg/kg/day): 47** %; % removed from study ([2]; 3 mg/kg/day): 10%; maximum plasma concentration at the ED50 ([3]; female, Lewis, rat, in vivo): 0.0068 mg/L; maximum plasma concentration at the ED80 ([3]; female, Lewis, rat, in vivo): 0.0223 mg/L; AUC of Paw Swelling, MEAN ([3]; rCIA, dosed at 0.03 mg/kg orally once daily day 10-17): 4.19 mL·days; AUC of Paw Swelling, MEAN ([3]; rCIA, dosed at 0.1 mg/kg orally once daily day 10-17): 3.66* ml-day; AUC of Paw Swelling, MEAN ([3]; rCIA, dosed at 0.3 mg/kg orally once daily day 10-17): 1.84** ml-day; AUC of Paw Swelling, MEAN ([3]; rCIA, dosed at 1.0 mg/kg orally once daily day 10-17): 0.70** ml-day; ED80, inhibition of inflammation in the arthritic paw ([3]; rCIA, oral once daily): 0.69 mg/kg; half-life at 0.5 μM [4]: > 2 h; % TGD (tumor growth delay) ([5]; 0.2 mg/kg/day): 93%; % TGI (tumor growth inhibition) ([5]; 0.2 mg/kg/day): 41* %; % removed from study ([5]; 0.2 mg/kg/day): 0%; % TGD (tumor growth delay) ([5]; 2 mg/kg/day): 721*** %; % TGI (tumor growth inhibition) ([5]; 2 mg/kg/day): 86** %; % removed from study ([5]; 2 mg/kg/day): 0%; half-life at 0.5 μM [6]: > 2 h; % TGD (tumor growth delay) [7, 14]: 40%; % TGI (tumor growth inhibition) [7, 14]: 43** %; % removed from study [7, 14]: 0%; % TGI (tumor growth inhibition) [7, 15]: 60*** %; % removed from study [7, 15]: 0%; % TGI (tumor growth inhibition) [7, 16]: 76*** %; % removed from study [7, 16]: 0%; % TGI (tumor growth inhibition) ([7]; MX-1 xenograft, 0.3 mg/kg/day PO, QDx14, based on day 27): 43** %; % TGI (tumor growth inhibition) ([7]; MX-1 xenograft, 1 mg/kg/day PO, QDx14, based on day 27): 60*** %; % TGI (tumor growth inhibition) ([7]; MX-1 xenograft, 3 mg/kg/day PO, QDx14, based on day 27): 76*** %; % TGD (tumor growth delay) ([8]; 0.2 mg/kg/day): 16*** %; % TGI (tumor growth inhibition) ([8]; 0.2 mg/kg/day): 22* %; % removed from study ([8]; 0.2 mg/kg/day): 0%; % TGD (tumor growth delay) ([8]; 2 mg/kg/day): 94* %; % TGI (tumor growth inhibition) ([8]; 2 mg/kg/day): 81*** %; % removed from study ([8]; 2 mg/kg/day): 0%; ED50 [9]: 0.21 mg/kg; EC50 [10]: 0.0174 µM; Ki [11]: 0.0035 µM; inhibition in vivo at 3 mg/kg [12]: 78%; change in vivo at 0.5 mg/kg ([13]; OPM-2, ip, read-out: % TGD (tumor growth delay), OPM-2, IP, QDx21, vehicle F): 52%; change in vivo at 1 mg/kg ([13]; OPM-2, ip, read-out: % TGD (tumor growth delay), OPM-2, IP, Q4DX3, vehicle F): 80%; inhibition in vivo at 0.5 mg/kg ([13]; OPM-2, ip, read-out: % TGI (tumor growth inhibition), OPM-2, IP, QDx21, vehicle F): 49%; inhibition in vivo at 1 mg/kg ([13]; OPM-2, ip, read-out: % TGI (tumor growth inhibition), OPM-2, IP, Q4DX3, vehicle F): 61%; inhibition in vivo at 1 mg/kg ([13]; OPM-2, iv, read-out: % TGI (tumor growth inhibition), OPM-2, IV, Q4Dx3, vehicle C): 69%; inhibition in vivo at 3 mg/kg ([13]; OPM-2, po, 744 h, read-out: % TGI (tumor growth inhibition), OPM-2 xenograft, 3 mg/kg/day PO, QDx14, based on day 31): 90%; change in vivo at 0.5 mg/kg ([13]; OPM-2, po, read-out: % TGD (tumor growth delay), OPM-2, PO, QDx21, vehicle A): 101%; change in vivo at 1 mg/kg ([13]; OPM-2, po, read-out: % TGD (tumor growth delay), OPM-2, PO, BIDx21, vehicle A): 140%; change in vivo at 3 mg/kg ([13]; OPM-2, po, read-out: % TGD (tumor growth delay), OPM-2, 3 mg/kg/day, PO, QDx14, vehicle A): 21%; change in vivo at 3 mg/kg ([13]; OPM-2, po, read-out: % TGD (tumor growth delay), OPM-2, 3 mg/kg/day, PO, QDx21, vehicle A): 131%; change in vivo at 6 mg/kg ([13]; OPM-2, po, read-out: % TGD (tumor growth delay), OPM-2, 6 mg/kg/day, PO, Q2D x21 d, vehicle A): 84%; change in vivo at 7 mg/kg ([13]; OPM-2, po, read-out: % TGD (tumor growth delay), OPM-2, 7 mg/kg/day, PO, QD(3 on 4 off)x3, vehicle A): 97%; change in vivo at 10.5 mg/kg ([13]; OPM-2, po, read-out: % TGD (tumor growth delay), OPM-2, 10.5 mg/kg/day, PO, QD(2 on 5 off)x3, vehicle A): 94%; change in vivo at 3 mg/kg ([13]; OPM-2, po, read-out: % TGD (tumor growth delay), OPM-2 xenograft, 3 mg/kg/day PO, QDx14, endpoint of 1000 mm^3): 78%; inhibition in vivo at 0.5 mg/kg [13, 17]: 75%; inhibition in vivo at 1 mg/kg ([13]; OPM-2, po, read-out: % TGI (tumor growth inhibition), OPM-2, PO, BIDx21, vehicle A): 74%; inhibition in vivo at 1 mg/kg [13, 17]: 75%; inhibition in vivo at 3 mg/kg ([13]; OPM-2, po, read-out: % TGI (tumor growth inhibition), OPM-2, 3 mg/kg/day, PO, QDx14, vehicle A): 90%; inhibition in vivo at 3 mg/kg ([13]; OPM-2, po, read-out: % TGI (tumor growth inhibition), OPM-2, 3 mg/kg/day, PO, QDx21, vehicle A): 88%; inhibition in vivo at 6 mg/kg ([13]; OPM-2, po, read-out: % TGI (tumor growth inhibition), OPM-2, 6 mg/kg/day, PO, Q2D x21 d, vehicle A): 82%; inhibition in vivo at 7 mg/kg ([13]; OPM-2, po, read-out: % TGI (tumor growth inhibition), OPM-2, 7 mg/kg/day, PO, QD(3 on 4 off)x3, vehicle A): 81%; inhibition in vivo at 10.5 mg/kg ([13]; OPM-2, po, read-out: % TGI (tumor growth inhibition), OPM-2, 10.5 mg/kg/day, PO, QD(2 on 5 off)x3, vehicle A): 75%
